The record followed here is PubChem BioAssay AID330 (DTP/NCI, 2004).

“And” between values parts separate entries of the source, which are not always exact repeats. Identical values can stand only once. Toxic doses and inconclusive results are not listed. Peptide text beside a SMILES is read from it. * marks the point of attachment. Cbz = O=C(OCc1ccccc1)*

In this test the test system is P388 leukemia ip, CD2F1 mice, survival T/C. The experiment in a line: NCI In Vivo Anticancer Drug Screen. Data for tumor model P388 Leukemia (intraperitoneal) in CD2F1 (CDF1) mice. As to conditions: endpoint: median survival time, higher = longer survival. The method in brief:
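Mice carrying the transplanted tumor received test compound or vehicle. Survival was recorded in each group, and the value is the treated-group measurement divided by that of the vehicle-treated control group.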

Setting [1] is: dose: 50.0 mg/kg/injection, schedule: Q01DX009 (ip), vehicle: saline with Tween-80.
[2] abbreviates: dose: 100.0 mg/kg/injection, schedule: Q01DX009 (ip), vehicle: saline with Tween-80.
[3] abbreviates: dose: 200.0 mg/kg/injection, schedule: Q01DX009 (ip), vehicle: saline with Tween-80.
[4] abbreviates: dose: 100.0 mg/kg/injection, schedule: Q04DX003 (ip), vehicle: saline with Tween-80.
[5] abbreviates: dose: 50.0 mg/kg/injection, schedule: Q01DX005 (ip), vehicle: saline with Tween-80.
[6] abbreviates: dose: 100.0 mg/kg/injection, schedule: Q01DX005 (ip), vehicle: saline with Tween-80.
Where [7] appears, read: dose: 200.0 mg/kg/injection, schedule: Q01DX005 (ip), vehicle: saline with Tween-80.
Setting [8] is: dose: 50.0 mg/kg/injection, schedule: Q01DX009 (ip), vehicle: Klucel (hydroxypropylcellulose) (HPC).
Where [9] appears, read: dose: 100.0 mg/kg/injection, schedule: Q01DX009 (ip), vehicle: Klucel (hydroxypropylcellulose) (HPC).
Where [10] appears, read: dose: 200.0 mg/kg/injection, schedule: Q01DX009 (ip), vehicle: Klucel (hydroxypropylcellulose) (HPC).

On to `O=C1c2ccccc2C(=O)c2c(O)c(NCCCNCCO)cc(O)c21`, for which the T/C (dose: 2.5 mg/kg/injection, schedule: Q01DX009 (ip), vehicle: acid diluted with saline) is 103 % of control; the T/C (dose: 5.0 mg/kg/injection, schedule: Q01DX009 (ip), vehicle: acid diluted with saline) was 108 % of control; the T/C (dose: 10.0 mg/kg/injection, schedule: Q01DX009 (ip), vehicle: acid diluted with saline) is 103 % of control; the T/C (dose: 20.0 mg/kg/injection, schedule: Q01DX009 (ip), vehicle: acid diluted with saline) is 112 % of control; the T/C (dose: 40.0 mg/kg/injection, schedule: Q01DX009 (ip), vehicle: acid diluted with saline) was 111 % of control; the T/C (dose: 80.0 mg/kg/injection, schedule: Q01DX009 (ip), vehicle: acid diluted with saline) was 100 % of control.

Turning to `O=C(CC(=NCCN=C(CC(=O)c1ccccc1)c1ccccc1)c1ccccc1)c1ccccc1.[Cu]`, the T/C is 98 % of control (dose: 100.0 mg/kg/injection, schedule: Q04DX002 (ip), vehicle: saline with Tween-80); 96 % of control (dose: 200.0 mg/kg/injection, schedule: Q04DX002 (ip), vehicle: saline with Tween-80); 95 % of control (dose: 400.0 mg/kg/injection, schedule: Q04DX002 (ip), vehicle: saline with Tween-80).

Regarding `CN(C)c1cc(=O)c2c(ccc3ccccc32)o1`, the T/C was 92 % of control under setting [1], 95 % of control under setting [2] and 95 % of control under setting [3].

For `COC(=O)/C=C/C(=O)NC(N)=O`, the T/C is, setting by setting: (dose: 6.25 mg/kg/injection, schedule: Q04DX003 (ip), vehicle: saline) 100 % of control; (dose: 12.5 mg/kg/injection, schedule: Q04DX003 (ip), vehicle: saline) 109 % of control; (dose: 25.0 mg/kg/injection, schedule: Q04DX003 (ip), vehicle: saline) 100 % of control.

As for `COC(=O)C1=C(C(=O)OC)C2C=CC1C(=O)N2/C=C/c1ccccc1` (centres undefined), the T/C by setting is: under setting [4], 102 % of control; (dose: 400.0 mg/kg/injection, schedule: Q04DX003 (ip), vehicle: saline with Tween-80) 117 % of control.

As to `Cc1ccc(S(=O)(=O)OC(C)c2[nH]c(=O)n(C3CCCO3)c(=O)c2F)cc1` (centres undefined), the T/C was 99 % of control under setting [5], 91 % of control under setting [6] and 93 % of control under setting [7].

Consider `NNC(=O)CN(CC(=O)NN)CC(=O)NN`, for which the T/C (dose: 50.0 mg/kg/injection, schedule: Q01DX005 (ip), vehicle: water) was 99 % of control; the T/C (dose: 100.0 mg/kg/injection, schedule: Q01DX005 (ip), vehicle: water) was 101 % of control; the T/C (dose: 200.0 mg/kg/injection, schedule: Q01DX005 (ip), vehicle: water) is 110 % of control.

Turning to `O=c1ccc(OS(=O)(=O)c2ccccc2)n[nH]1`, the T/C runs as follows: (dose: 60.0 mg/kg/injection, schedule: Q01DX005 (ip), vehicle: Klucel (hydroxypropylcellulose) (HPC)) 92 % of control; (dose: 120.0 mg/kg/injection, schedule: Q01DX005 (ip), vehicle: Klucel (hydroxypropylcellulose) (HPC)) 90 % of control.

As to `CN=C(c1ccc(NC(=O)c2ccc(C(=O)Nc3ccc(C(=NC)N4CCOCC4)cc3)cc2)cc1)N1CCOCC1`, the T/C was 105 % of control (dose: 6.25 mg/kg/injection, schedule: Q01DX005 (ip), vehicle: Klucel (hydroxypropylcellulose) (HPC)) and 101 % of control (dose: 12.5 mg/kg/injection, schedule: Q01DX005 (ip), vehicle: Klucel (hydroxypropylcellulose) (HPC)).

Take `CC(C)(OC(=O)c1ccc([N+](=O)[O-])cc1)C(=O)O`: the T/C is 99 % of control under setting [8], 98 % of control under setting [9] and 98 % of control under setting [10].

As for `COc1cccc2c1C(=O)c1c(O)c3c(c(O)c1C2=O)C[C@@](O)(C(=O)CN1CCN(C)CC1)C[C@@H]3OC1CC(N)C(O)C(C)O1` (some centres undefined), the T/C is 108 % of control (dose: 1.3 mg/kg/injection, schedule: Q01DX001 (ip), vehicle: water); 115 % of control (dose: 1.56 mg/kg/injection, schedule: Q01DX009 (ip), vehicle: water); 116 % of control (dose: 1.8 mg/kg/injection, schedule: Q01DX001 (ip), vehicle: water); 106 % of control (dose: 2.4 mg/kg/injection, schedule: Q01DX001 (ip), vehicle: water); 123 % of control (dose: 3.12 mg/kg/injection, schedule: Q01DX009 (ip), vehicle: water); 115 % of control (dose: 3.13 mg/kg/injection, schedule: Q01DX009 (ip), vehicle: water). Moreover, the T/C was 109 % of control (dose: 3.2 mg/kg/injection, schedule: Q01DX001 (ip), vehicle: water); 113 % of control (dose: 4.2 mg/kg/injection, schedule: Q01DX001 (ip), vehicle: water); 115 % of control (dose: 5.6 mg/kg/injection, schedule: Q01DX001 (ip), vehicle: water); 115 % of control (dose: 6.25 mg/kg/injection, schedule: Q01DX009 (ip), vehicle: water); 117 % of control (dose: 7.5 mg/kg/injection, schedule: Q01DX001 (ip), vehicle: water); 115 % of control (dose: 10.0 mg/kg/injection, schedule: Q01DX001 (ip), vehicle: water). Moreover, the T/C was 117 % of control (dose: 12.5 mg/kg/injection, schedule: Q01DX001 (ip), vehicle: water); 161 % of control (dose: 18.8 mg/kg/injection, schedule: Q01DX009 (ip), vehicle: water); 119 % of control (dose: 25.0 mg/kg/injection, schedule: Q01DX001 (ip), vehicle: water); 115 % of control and 117 % of control (dose: 25.0 mg/kg/injection, schedule: Q01DX009 (ip), vehicle: water).

Regarding `COC(=O)C1(C)CCCC2(C)C1CCC13C=C(C(C)C)C(CC1C(=O)O)CC23` (centres undefined), the T/C runs as follows: under setting [4], 91 % of control; (dose: 200.0 mg/kg/injection, schedule: Q04DX003 (ip), vehicle: saline with Tween-80) 100 % of control.

In the case of `COC(=O)CNC(=O)C(NC(=O)C1CCCN1C(=O)OCc1ccccc1)C(C)C` (stereo not drawn) (Cbz-Pro-Val-Gly-OMe; configuration not given here), the T/C is, setting by setting: under setting [5], 105 % of control; under setting [6], 100 % of control; under setting [7], 100 % of control.

`[O-][n+]1cc2ccccc2c2ccccc21`: the T/C runs as follows: (dose: 100.0 mg/kg/injection, schedule: Q04DX003 (ip), vehicle: saline) 100 % of control; (dose: 200.0 mg/kg/injection, schedule: Q04DX003 (ip), vehicle: saline) 100 % of control; (dose: 400.0 mg/kg/injection, schedule: Q04DX003 (ip), vehicle: saline) 99 % of control.

Take `COc1cc2c[n+](C)c3c4cc5c(cc4ccc3c2cc1OC)OCO5` (tested in a mixture with another compound): the T/C runs as follows: (dose: 3.13 mg/kg/injection, schedule: Q01DX009 (ip), vehicle: other) 103 % of control; (dose: 6.25 mg/kg/injection, schedule: Q01DX009 (ip), vehicle: Klucel (hydroxypropylcellulose) (HPC)) 159 % of control; (dose: 6.25 mg/kg/injection, schedule: Q01DX009 (ip), vehicle: other) 151 % of control; (dose: 7.4 mg/kg/injection, schedule: Q01DX009 (ip), vehicle: other) 116 % of control; (dose: 12.5 mg/kg/injection, schedule: Q01DX009 (ip), vehicle: other) 156 % of control; (dose: 25.0 mg/kg/injection, schedule: Q01DX009 (ip), vehicle: other) 173 % of control. Also, the T/C (dose: 50.0 mg/kg/injection, schedule: Q01DX009 (ip), vehicle: water) is 99 % of control.

`COc1ccc2c(c1)CSC(c1ccccc1)C2O` (centres undefined): the T/C by setting is: under setting [1], 98 % of control; under setting [2], 93 % of control; under setting [3], 99 % of control.

Regarding `CCCCCCCCCCCCCCCN1CCS(=O)(=O)CC1`, the T/C is 98 % of control under setting [8], 94 % of control under setting [9] and 94 % of control under setting [10].

As to `CC12CC3CC(C)(C1)CC(SCCN)(C3)C2`, the T/C reads like this: (dose: 60.0 mg/kg/injection, schedule: Q01DX005 (ip), vehicle: saline with Tween-80) 105 % of control; (dose: 120.0 mg/kg/injection, schedule: Q01DX005 (ip), vehicle: saline with Tween-80) 100 % of control.
